Experiments:
[1] = system: platelet aggregation provoked by PAF (washed rabbit platelets); test: Anti-PAF activity (inhibition of PAF-provoked platelet aggregation in washed platelets, nephelometry); format: cell-based; details: Oryctolagus cuniculus, PAF 30 ng/ml, read-out: Inhibition rate PAF
Procedure: (a) Preparation of washed platelet suspension (hereinafter referred to as W.P.)
(§1) A blood sample was collected from a carotid artery of a male rabbit weighing 2.5 kg, while adding thereto one volume of a 3.13% sodium citrate solution per 9 volumes of blood as a […]. The resulting blood was centrifuged at 200 xg for 20 minutes to separate out platelet-rich plasma (hereinafter referred to as PRP). This PRP was centrifuged at 1,000 xg for 15 minutes to separate the platelets from the plasma. The deposited platelets were washed twice with a Tyrode solution (Tyrode-Ca^++), from which Ca^++ had been removed and to which 1% bovine serum albumin (BSA) had been added, such that 9×10^5 platelets per μl were finally suspended in the Tyrode solution.
(b) Preparation of specimens and PAF
Specimens were dissolved or suspended in a physiological saline. PAF was dissolved in a Tyrode solution containing 1% BSA. PAF synthesized from D-mannitol in accordance with a method disclosed by J. J. Godfroid et al was used (FEBS Letters 116, 161-164, 1980).
(c) Measurement of platelet aggregation
(§2) Platelet aggregation measurements were conducted according to nephelometry described by Born et al using a platelet aggregation meter manufactured by Schenko Co. Specimen solutions having various concentrations of test compounds and 0.25 ml of W.P. were subjected to preincubation at 37° C. for 4 minutes, and then PAF was added thereto to give a final PAF concentration of 30 ng/ml to provoke platelet aggregation. The transmittance of the W.P. before aggregation, that is, before the addition of the aggregation provoking agent, was rated as 0, and the transmittance of the Tyrode solution was rated as 100. After the addition of the PAF solution to the W.P., light transmittance increased as aggregation proceeded. The value of the light transmittance at the time when the aggregation had proceeded to a maximum was rated as the maximum aggregation (hereinafter referred to as MA) which was used as an index of the degree of aggregation.
(§3) The inhibition rate was calculated according to the following equation. The aggregation in a W.P.-containing physiological saline solution free of test compound, as a control, was rated as 0% aggregation inhibition. [formula] wherein M.A. Control: maximum aggregation after platelet aggregation in PAF was provoked, after the addition of physiological saline.
M.A. Sample: maximum aggregation after platelet aggregation in PAF was provoked, after the addition of the test compound.

[2] = system: platelet aggregation provoked by bovine thrombin (washed rabbit platelets); test: Antithrombic activity (inhibition of thrombin-provoked platelet aggregation); format: cell-based; details: Oryctolagus cuniculus, bovine thrombin 0.2 units/ml, read-out: Inhibition rate Thrombin (%)
Procedure: as §1, §2, §3
(2) Antithrombic activity
The measurement of the antithrombic activity was conducted in the same manner as described above, except that bovine thrombin at a final concentration of 0.2 units/ml was used as the platelet aggregation provoking agent in place of PAF.

Row | Compound | inhibition at 20 µM [1] | inhibition at 20 µM [2] | inhibition at 50 µM [1] | inhibition at 50 µM [2]
1 | CC(C)=CCC/C(C)=C/CC/C(C)=C/CC/C(C)=C/CNCCN(C)C | 37.1% | – | – | –
2 | CC(C)=CCC/C(C)=C/CC/C(C)=C/CC/C(C)=C/C(=O)N(CCN(C)C)CCN(C)C | 88.7% | 76.4% | – | –
3 | CC(=CC(=O)NCCO)c1ccc(CCCC(C)CCCC(C)C)cc1 (centres unmarked) | 55.9% | – | – | –
4 | CC(C)=CCC/C(C)=C/CC/C(C)=C/C(=O)NCCO | – | – | 18.7% | –
5 | CC(C)CCCC(C)CCCC(C)Cc1ccc(C(=O)N(CCN(C)C)CCN(C)C)c2ccccc12 (centres unmarked) | 59.3% | – | – | –
6 | CC(C)CCCC(C)CCCC(C)Cc1ccc(C(=O)N(CCN(C)C)CCN(C)C)cc1 (centres unmarked) | 74.7% | 78.8% | – | –
7 | CC(C)=CCC/C(C)=C/CC/C(C)=C/c1ccc(C(=O)N(CCN(C)C)CCN(C)C)cc1 | 93.6% | 70.6% | – | –
8 | CC(C)=CCC/C(C)=C/CCC(C)CC(=O)NCCO (centres unmarked) | – | – | 31.4% | –
9 | CC(C)CCCC(C)CCCc1ccc(C(C)CC(=O)N(CCN(C)C)CCN(C)C)cc1 (centres unmarked) | 57.8% | – | 82.6% | –
10 | CC(C)CCCC(C)CCCC(C)Cc1cccc2c(C(=O)N(CCN(C)C)CCN(C)C)cccc12 (centres unmarked) | 58.3% | – | – | –
11 | CC(C)=CCC/C(C)=C/CC/C(C)=C/CC/C(C)=C/C(=O)N(CCO)CCO | – | – | 76.4% | –
12 | CC(C)CCCC(C)Cc1ccc(C(=O)NCCO)cc1 (centres unmarked) | 57.8% | – | – | –
13 | CCN1CCCC(NC(=O)/C=C(\C)CC/C=C(\C)CC/C=C(\C)CCC=C(C)C)C1 (centres unmarked) | – | – | 80.3% | 24.2%
14 | CC(C)=CCC/C(C)=C/CC/C(C)=C/CC/C(C)=C/C(=O)NCCN(C)C | 74.3% | – | – | –
15 | CC(C)=CCC/C(C)=C/CC/C(C)=C/CC/C(C)=C/C(=O)N1CCCCC1CO (centres unmarked) | – | – | 34.4% | 27.4%
16 | CC(C)=CCC/C(C)=C/CC/C(C)=C/CC/C(C)=C/CNC(=O)CN(C)C | 60.4% | – | – | –
17 | CC(C)=CCC/C(C)=C/CC/C(C)=C/c1ccc(C(=O)NCCN(C)C)cc1 | 73.5% | 34.2% | – | –
18 | CC(=CC(=O)N(CCN(C)C)CCN(C)C)c1ccc(CCCC(C)CCCC(C)C)cc1 (centres unmarked) | 63.2% | – | 82.2% | –
19 | CC(C)=CCC/C(C)=C/CC/C(C)=C/CC/C(C)=C/C(=O)N1CCCC(O)C1 (centres unmarked) | – | – | 27.4% | 19.2%
20 | CC(C)CCCC(C)Cc1ccc(C(=O)N(CCN(C)C)CCN(C)C)cc1 (centres unmarked) | 59.4% | – | – | –
21 | CC(C)CCCC(C)CCCC(C)Cc1ccc(C(=O)N(CCN(C)C)CCN(C)C)c2c1CCCC2 (centres unmarked) | 50.5% | – | – | –
22 | CC(C)=CCC/C(C)=C/CC/C(C)=C/CC/C(C)=C/CNC(=O)CCN | 59.1% | – | – | –
23 | CC(C)CCCC(C)CCCC(C)Cc1ccc(C(=O)N(CCN(C)C)CCN(C)C)c(F)c1 (centres unmarked) | 64.9% | – | – | –
24 | CC(C)CCCC(C)CCCC(C)Cc1ccc(C(=O)NCCN(C)C)cc1 (centres unmarked) | 80.6% | 70.3% | – | –
25 | CC(C)=CCC/C(C)=C/CC/C(C)=C/CC/C(C)=C/CC/C(C)=C/C(=O)NCCO | – | – | 22.7% | –

— patent US4742058A, “Polyprenyl compound, process for the production thereof and drug containing the same” (Eisai Co., Ltd., priority 1982, dated 1988)
